row,Compound,melting point
1,CCOC(=O)C(C#N)C1(C#N)C(=O)N(Cc2ccc(Br)cc2F)c2c(C)cccc21 (configuration not stated),130 to 132 °C
2,Cc1ccc2c(c1)CC(N1CCN(CCN3CCOC3=O)CC1)c1cc(C)ccc1O2 (configuration not stated),145 to 147 °C
3,CC(/C=C/C(Br)=C(/C)c1ccc2c(c1)C(C)(C)CCC2(C)C)=C\C(=O)O,189 to 190 °C
4,CSc1ncc(Cc2ccc(C)nc2)c(=O)[nH]1,197 to 198 °C
5,CCOC(=O)Nc1ccc(OCc2ccc(Cl)nc2)cc1F,139 °C
6,Fc1ccc2c(c1)nc(Cl)c1nncn12,305 to 308 °C
7,CC(C)(C)C(=O)OCCOCn1cnc2c(=O)[nH]c(N)nc21,245 to 246 °C
8,COc1ccc(-c2nc(C)c(C)s2)cc1,166 to 170 °C
9,C#CCNC(=O)c1ccc(C(=O)OC)cc1,152 to 153 °C
10,CCOC(=O)c1c(C(F)(F)F)nc(C(F)(F)Cl)c(C(=O)OC)c1NN(C)C,97 to 98 °C
11,CCC(CC)Oc1cc(C)nc(Oc2c(C)cc(C)cc2C)c1[N+](=O)[O-],106 to 109 °C
12,CC(=S)NC[C@H]1CN(c2ccc(N3CCC4(CC3)OCCO4)c(F)c2)C(=O)O1,141 to 143 °C
13,C=C(C)COc1ccc(C)c2c1C(=O)CC2,74.2 to 75.2 °C
14,CCc1cccc2sc(COc3ccc(F)c(C(N)=O)c3F)nc12,184 to 186 °C
15,CN1CCC(Oc2ccc(F)cc2C(N)=O)C1 (configuration not stated),90 to 93 °C
16,O=C(O)COc1ccc(Cl)cc1-c1ccc(C(=O)N2CCCC2)c(C(F)(F)F)c1,197 to 198 °C
17,CCCOc1ccnc2[nH]ccc12,189 to 191 °C
18,CCOC(=O)c1cc([N+](=O)[O-])c(C)nc1C(=O)OCC,90 to 91.5 °C
19,Nc1cc2c(cc1CCN1CCN(c3cccc(C(F)(F)F)c3)CC1)OCO2,88 °C
20,N#CCCCCn1cnc(NC(N)=NCC(F)(F)F)n1,200 to 201 °C
21,COc1cc(OCc2ccccn2)ccc1/C=C/c1cc(/C=C/c2cccc3[nH]ccc23)n[nH]1,108 to 113 °C

row,Compound,melting point
1,O=C1NC(=O)C2(CCN(Cc3ccccc3)CC2)O1,291 to 294 °C
2,COc1ccc(-c2c(Cl)c(CN3C(=O)CCC3=O)nc3sc4c(c23)CCS(=O)(=O)C4)cc1,300 °C
3,COc1ccc(C(N)CC(=O)O)cc1OC (configuration not stated),208 to 210 °C
4,CC(=O)C(C)Oc1cc(-n2c(=O)cc(C(F)(F)F)n(C)c2=O)c(F)cc1Br (configuration not stated),119 °C
5,O=C(O)CC1CCCc2c1n(Cc1ccccc1Cl)c1c(F)cc(F)cc21 (configuration not stated),197 to 198 °C
6,COc1ccc(-c2ocnc2-c2cc(OC)c([N+](=O)[O-])c(OC)c2)cc1O,186 to 188 °C
7,Cc1noc(NS(=O)(=O)c2ccsc2C(=O)c2ccc3c(c2)OCO3)c1Br,47 to 49 °C
8,COC(=O)C1(N(OC2CCCO2)C(=O)Cc2c(C)cc(C)cc2C)CCN(OC)CC1 (configuration not stated),107 to 109 °C
9,CCn1c(=O)c2[nH]c(/C=C/c3ccc(OC)c(OC)c3Cl)nc2n(CC)c1=O,278 to 281 °C
10,CCCCCCCCCc1ccc(C(Sc2cccc(NC(=O)CC(=O)OC)c2)C(=O)CCCC(=O)OC)cc1 (configuration not stated),88 to 91 °C
11,CS(=O)(=O)Nc1ccc(C(O)(C(F)(F)F)C(F)(F)F)cc1,137 to 139 °C
12,CCCc1c2c(c(O)c3c(=O)cc(C(=O)O)oc13)C(O)CCC2 (configuration not stated),245 to 249 °C
13,CCOP(=S)(OCC)Oc1nsc(C)c1C(N)=O,68 °C
14,CC(C)(C)OC(=O)NC(C(=O)NOC(c1ccccc1)(c1ccccc1)c1ccccc1)C1(O)CCSC1 (configuration not stated),220 to 225 °C
15,CCCCCCCCSC(CCCCC)CCn1ccnc1 (configuration not stated),105 to 108 °C
16,Cn1ncc(NCCN2CCC(c3noc4cc(F)ccc34)CC2)cc1=O,200 to 202 °C
17,COc1ccc2cc(C(=O)C34CC5CC(CC(C5)C3)C4)oc2c1,99 to 101 °C
18,COc1ccc(S(=O)(=O)Nc2ccccc2Cl)cc1OC1CCCC1,113 to 115 °C
19,COc1ccc(CN2C(=O)C(C)(c3cc(CN4CCCCC4=O)ccc3Cl)c3cc(Cl)ccc32)c(OC)c1 (configuration not stated),72 °C
20,COc1cc(-c2ncc(C(F)(F)F)cc2F)c(F)cc1Cl,79 to 80 °C
21,COc1cc(NC(N)=O)c2c(c1)OC(C)C2 (configuration not stated),204 °C

row,Compound,melting point
1,COc1cc2c(cc1OC)CN(CCc1ccc(NC(=O)c3cccc4c(=O)c5cccc(OC)c5sc34)cc1)CC2,218 to 219 °C
2,COc1cccc2c1OCC(/C=C/C=C/C=C/C(=O)O)=C2,226 to 228 °C
3,CC(=NOCCOc1ccc(CC2SC(=O)N(C(c3ccccc3)(c3ccccc3)c3ccccc3)C2=O)cc1)c1ccc(-c2ccccc2)cc1 (configuration not stated),145 °C
4,COc1nc2cc(C)c(C)c(N)c2nc1OC,166 to 167 °C
5,CN1Cc2ccc(NC(=O)N[C@@H]3c4cc(C#N)ccc4OC(C)(C)[C@H]3O)cc2C1,220 to 222 °C
6,COC(=O)/C=C/n1cnc2ccc(C(C)C)cc2c1=O,145 °C
7,CCOC(=O)c1cccc(C2COc3c(ccc(O)c3C)C2)c1 (configuration not stated),143 to 144 °C
8,O=C1N(Cc2ccc(C(F)(F)F)o2)c2ccccc2C12COc1cc3c(cc12)CCO3 (configuration not stated),64 to 65 °C
9,CCOC(=O)Nc1ccc2oc(CCC(F)(F)F)cc2c1,108 °C
10,COC(=O)C1=CC=C(/C=C/c2ccc(OC)cc2)C2=CC(C(C)C)=CC=C(C)C2=C1C(=O)OC,161 to 162 °C
11,CC(C)(C)OC(=O)Nc1ccc(-c2ccco2)cc1[N+](=O)[O-],169 to 172 °C
12,O=c1cc(CO)oc2cc(O)ccc12,250 to 252 °C
13,Cc1cc(N2CCCC2)c([N+](=O)[O-])c(Cl)n1,151 to 156 °C
14,COC(=O)c1cc(Br)cc(Cl)c1NC(C)=O,152 to 153 °C
15,CCOC(=O)C(C#N)=CNc1ccc(C)cn1,170 to 172 °C
16,CCn1c(=O)ccc2cnc(Nc3ccc(OCCOC)cc3)nc21,169 to 171 °C
17,C=Cc1cc(Br)c(O)c(Br)c1,75 °C
18,CSc1coc2ccccc2c1=O,103 to 105 °C
19,Clc1ccc(-c2onc3c(CBr)cccc23)cc1,153 to 155 °C

# The next lines start with the values.
row,melting point,Compound
1,278 to 279 °C,Oc1ccc(-c2ncc3ncc(-c4ccccc4O)cc3n2)cc1
2,171 to 173 °C,Cn1ncnc1COc1nn2c(-c3ccccc3F)nncc2c1-c1cc(F)cc(F)c1
3,255 to 260 °C,Cc1c(CO)ncn1C(c1ccccc1)(c1ccccc1)c1ccccc1
4,178 to 183 °C,CCC(=O)NNC(=O)NCCOc1ccccc1
5,208 to 209 °C,CCOC(=O)COc1ccc(C(=O)Nc2cccc(F)c2Sc2ccccc2-c2nnn[nH]2)cc1
6,105 °C,CC(=O)Nc1ccc2ccccc2c1-c1c(P(c2ccccc2)c2ccccc2)ccc2ccccc12
7,147 °C,O=C(c1nnc(-c2ccccc2)o1)N1CC(Oc2ccc(CN3CC(C(F)F)C3)cc2)C1
8,179 to 180 °C,O=C(Nc1c[nH]nc1C(=O)NCCCc1ccccc1)c1ccccn1
9,171 to 173 °C,CCCn1cc(-c2ccncc2)cc(N)c1=O
10,100 to 101 °C,CCOC(=O)CCC(=O)c1ccc(-c2ccccc2)cc1
11,80 to 81 °C,CC(=O)c1ccc(OCCCc2ccccc2)cc1
12,157 to 158 °C,c1cc(-c2nccs2)cc(-n2cnc3cc(-c4ccon4)ccc32)c1
13,96 to 98 °C,CC1CCCCN1C(=O)C1Cc2ccccc2N1c1ccc(=O)n(C)n1 (configuration not stated)
14,125 to 128 °C,Cc1ncn(-c2ccc(C=O)cc2)n1
15,131 to 133 °C,O=S(=O)(NCCCCOc1ccc(-c2ccncn2)cc1)c1ccc(Br)cc1
16,165 to 167 °C,CS(=O)(=O)c1ccc(-c2cnn(CC=Cc3ccccc3)c(=O)c2-c2ccc(F)cc2)cc1
17,252 to 255 °C,Cc1nnc(NC(=O)C2=C(O)c3ccc4ccccc4c3S(=O)(=O)N2C)s1
18,116 to 120 °C,CCOC(=O)C1CCn2c(cc3ccccc32)C1O (configuration not stated)
19,176 to 178 °C,CN1C=C(N2CCCC2)c2ccc3ccccc3c2S1(=O)=O
20,173 to 174 °C,CN(CCO)Cn1nc(-c2ccncc2)n(-c2ccccc2)c1=S
21,100 to 102 °C,CN(CC(CCOS(C)(=O)=O)c1ccc(Cl)c(Cl)c1)C(=O)c1ccccc1 (configuration not stated)

row,melting point,Compound
1,220 to 221 °C,CC(C)c1cc(-c2c3ccccc3c(Br)c3sc4ccccc4c23)cc(C(C)C)c1OCC(=O)O
2,118 °C,CCN(CC)C(=O)c1nn(-c2ccc(OC(F)(F)F)cc2)c2cccc(F)c2c1=O
3,161 to 163 °C,Nc1cccc(-c2nc(-c3cccnc3)no2)c1
4,151 °C,CC(C)(CCc1cc2cc(Cl)ccc2n1S(=O)(=O)c1ccc2ncsc2c1)C(=O)O
5,208 to 211 °C,CCc1cn2c(=O)c(C#N)cnc2c2ccccc12
6,228 to 229 °C,CN1CCC(=O)N(c2cccc3ccccc23)C1=O
7,166 °C,COc1ccc2ccc(N3C(=O)c4ccccc4C3OCC(=O)N(C)C)nc2n1 (configuration not stated)
8,228 to 229 °C,O=C(Nc1cnc2ccc(Cl)cc2c1-c1ccccc1)Nc1c(F)cccc1F
9,118 to 120 °C,Cn1c(C(=O)c2ccc(F)cc2)cc2cc(OCc3ccccc3)ccc21
10,184 to 197 °C,CNc1nc(-c2cccnc2)nc(SC)c1C(=O)Nc1ccc(OC)cc1
11,225 to 227 °C,Cc1nc(-n2cccc(C(=O)Nc3ccccc3)c2=O)sc1C(=O)NCc1ccccc1
12,133 °C,COC(=O)C(Cc1cc(OC)cc(C(F)(F)F)c1)NC(=O)c1ccccc1 (configuration not stated)
13,149 to 151 °C,c1ccc(Sc2c[nH]c3ccccc23)cc1
14,158 to 160 °C,NC(=O)n1ccc(-c2ccc(Oc3ccc(N)cc3)cc2)n1
15,330 to 332 °C,Cn1cc(-c2cc3cccnc3[nH]2)c2cc(C(N)=O)ccc21
16,287 to 290 °C,O=C(O)c1cc2n(c1)CCc1ccccc1C2=O
17,238 °C,C[C@H](O)CNc1cc(Oc2ccc(F)cc2F)nc2[nH]nc(-c3ccccc3Cl)c12
18,146 to 149 °C,BrCCCc1ncnn1C(c1ccccc1)(c1ccccc1)c1ccccc1
19,144 to 146 °C,O=C(O)COCC(=O)OCC1CN(C(=O)Oc2ccccc2)CCC1c1ccc(F)cc1 (configuration not stated)
20,172 to 173 °C,NNc1nc(-c2ccccc2)c2cc(Cl)ccc2n1

# From a melting point compilation (Tetko et al.; mined from patent text by program, amines drawn as free bases though some values may be those of a salt)
